Laboratory results published in US9789098B2, “Nootropic compositions for improving memory performance” (Pharnext, priority 2012, dated 2017).

Key:
[1] = test system: 11 month-old C57B1/6 mice; assay: % of alternation in T-maze test, healthy mice (short term memory); format: in vivo; conditions: administered once 2 hours before the test, very low doses (mix doses 4 and 5), FIG. 2
Procedure: 11 month-old C57B1/6 mice are used. They are group-housed (5-10 mice per cage) and maintained in a room with controlled temperature (21-22° C.) and a reversed light-dark cycle (12 h/12 h; lights on: 17:30-05:30; lights off: 05:30-17:30) with food and water available ad libitum.
Drugs are solubilized in water and freshly prepared just before each gavage or ip administration and are kept under agitation.
Doses of drugs of the invention are exemplified in table 4. Concerning acamprosate calcium, the indicated doses refer to the doses of the salt of molecule.
Between day 0 and day 7, drug combinations or the vehicle solution were administered twice daily (at 8:00 am and 6:00 pm). One animal group receives donepezil (reference compound 0.3 mg/kg) at 8:00 am and the vehicle at 6:00 pm.
On day 8, all animals were tested for the % of alternation performance in the T-maze test, 2 hours after the administration of drugs combination or the vehicle solution.
The eve of the test, drug combinations or the vehicle solution were administered at 8:00 am and 6:00 pm. […]
The effect of the administration of combinations on short term memory was assessed for different durations of treatment (7 days, 1 day, 2 hours before the test). […]
The percent spontaneous alternation was calculated as the number of spontaneous alternations divided by the number of free-choice trials. […]

[2] = Plasma pharmacokinetics in the clinical trial; conditions: human, in vivo, po
Source text: Pharmacodynamics of baclofen and acamprosate have been established in the frame of clinical trial.

SMILES	improvement of learning and working memory performances vs vehicle [1]	Tmax [2] [h]
CC(=O)NCCCS(=O)(=O)O [acamprosate, Acamprosate]	no significant improvement	1.5 to 2
NCC(CC(=O)O)c1ccc(Cl)cc1 (racemic) [baclofen, Baclofen]	no significant improvement	1.5
